Measured values taken from patent US20230279025A1, “KRAS G12D INHIBITORS” (Mirati Therapeutics, Inc., priority 2020, published 2023).
Read-outs that look alike come from different tables or passages of the source.

Legend:
KRas G12D [1] = biological target: T1, KRas G12D (Homo sapiens (Human), UniProt P01116, G12D); assay: KRas G12D Surface Plasmon Resonance (SPR) Binding Assay; conditions: Biacore T200, immobilized biotinylated KRAS protein, 1:1 binding model
Target sequence in this assay (P01116-2 other isoform, or with tags, fused parts or gaps G12D): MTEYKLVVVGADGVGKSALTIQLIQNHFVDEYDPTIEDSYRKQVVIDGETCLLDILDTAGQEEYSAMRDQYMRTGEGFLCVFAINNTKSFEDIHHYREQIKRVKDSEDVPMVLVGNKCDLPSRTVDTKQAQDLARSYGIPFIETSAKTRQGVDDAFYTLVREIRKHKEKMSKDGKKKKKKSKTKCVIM

KRas G12D [2] = biological target: T1, KRas G12D; assay: KRas G12D Binding Assay (TR-FRET displacement of Cy5 labelled tracer); conditions: GDP-loaded KRAS G12D (amino acids 1:169), 60 minute incubation at 22° C.
Protocol: After a 60 minute incubation at 22° C., the reaction was measured using a PerkinElmer EnVision multimode plate reader via TR-FRET dual wavelength detection, and the percent of control (POC) calculated using a ratiometric emission factor. […] The POC values were fit to a 4-parameter logistic curve and the IC50 value was determined as the concentration where the curve crosses 50 POC.
ND stands for “not determined.”
Target sequence in this assay (P01116 other isoform, or with tags, fused parts or gaps G12D): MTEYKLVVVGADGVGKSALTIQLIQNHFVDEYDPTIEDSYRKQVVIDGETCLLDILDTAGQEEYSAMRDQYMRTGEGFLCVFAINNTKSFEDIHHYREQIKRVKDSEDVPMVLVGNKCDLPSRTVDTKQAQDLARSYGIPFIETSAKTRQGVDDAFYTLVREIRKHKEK

[3] = tested on: KRas G12D-mediated phosphorylation of ERK in AGS cells (ATCC CRL-1739) expressing G12D; assay: Inhibition of KRas G12D-mediated Phosphorylation of ERK in AGS cells; format: cell-based; conditions: Homo sapiens
Protocol: Cells were plated in tissue culture treated 96 well plates at a density of 40,000 cells/well and allowed to attach for 12-14 hours. Diluted compounds were then added in a final concentration of 0.5% DMSO. After 3 hours, the medium was removed, 150 μL of 4.0% formaldehyde was added and the plates incubated at room temperature for 20 minutes. The plates were washed with PBS, and permeabilized with 150 μL of ice cold 100% methanol for 10 minutes. Non-specific antibody binding to the plates was blocked using […] Licor blocking buffer (Li-Cor Biotechnology, Lincoln Nebr.) for 1 hour at room temperature.
The amount of phospho-ERK was determined using an antibody specific for the phosphorylated form of ERK and compared to the amount of GAPDH. Primary antibodies used for the detection were added as follows: Phospho-ERK(Cell Signaling cs-9101) diluted 1:500 and GAPDH(Millipore MAB374) diluted 1:5000 in Licor block+0.05% Tween 20. The plates were incubated for 2 hours at room temperature. The plates were washed with PBS+0.05% Tween 20.
Secondary antibodies used to visualize primary antibodies were added as follows: Anti-rabbit-680 diluted 1:1000 and Anti-mouse-800 diluted 1:1000 both in Licor block+0.05% TweeN20, and were incubated for 1 hour at room temperature. The plates were washed with PBS +0.05% Tween 20. A 100 μL aliquot of PBS was added to each well and the plates were read on a Li-Cor Odyssey CLX plate reader.

[4] = Whole Blood Stability (WBS), human whole blood; format: in vitro ADME
Protocol: Compounds (2 μM) were incubated at 37° C. for 0, 10, 30, 60, and 120 min in a 1:1 (v/v) blood and PBS, pH 7.4. Diluted blood was preincubated for 15 min at 37° C. before the reactions were initiated with the dosing of the compound. At the end of incubation, the same volume of water was mixed with the spiked blood samples, and then stop solution (200 ng/mL tolbutamide and 200 ng/mL labetalol in MeOH) was added to precipitate protein. Mixed thoroughly. Samples were centrifuged, and supernatants were analyzed by LC-MS/MS.

[5] = phospho-ERK(Thr202/Tyr204) normalized to GAPDH, AGS cells, 3 hours, read-out: IC50

Row | SMILES | Kd (KRas G12D [1]) | IC50 (KRas G12D [2]) | IC50 [3, 5] | also measured
1 | N#CC[C@@H]1C[C@@H]2CN(c3nc(OC[C@@]45CCCN4C[C@H](F)C5)nc4c(F)c(-c5cc(O)cc6ccccc56)ncc34)C[C@H]1N2 (racemic) [Example 339, 2-((1R,5S,6S)-3-(8-fluoro-2-((2-fluorotetrahydro-1H-pyrrolizin-7a(5H)-yl)methoxy)-7-(3-hydroxynaphthalen-1-yl)pyrido[4,3-d]pyrimidin-4-yl)-3,8-diazabicyclo[3.2.1]octan-6-yl)acetonitrile (racemic, trans)] | 21.6 nM | 21 nM | 8.66 µM | –
2 | Oc1cc(-c2ncc3c(N4C[C@H]5CC[C@@H](C4)N5)nc(OCCN4C[C@@H]5C[C@H]4CO5)nc3c2F)c2ccccc2c1 [Example 26, 4-(2-(2-((1S,4S)-2-oxa-5-azabicyclo[2.2.1]heptan-5-yl)ethoxy)-4-((1R,5S)-3,8-diazabicyclo[3.2.1]octan-3-yl)-8-fluoropyrido[4,3-d]pyrimidin-7-yl)naphthalen-2-ol] | 27.9 nM | 42.1 nM | 4.28 µM | –
3 | CC(C)N1CCC[C@H]1COc1nc(N2C[C@H]3C[C@@H](O)[C@@H](C2)N3)c2cnc(-c3cccc4cccc(Cl)c34)c(F)c2n1 [Example 153, (1R,5R,6R)-3-(7-(8-chloronaphthalen-1-yl)-8-fluoro-2-(((S)-1-isopropylpyrrolidin-2-yl)methoxy)pyrido[4,3-d]pyrimidin-4-yl)-3,8-diazabicyclo[3.2.1]octan-6-ol] | 70.5 nM | 50.8 nM | 2.37 µM | –
4 | C#Cc1c(F)ccc2cc(O)cc(-c3ncc4c(N5C[C@H]6CC[C@@H](C5)N6C(=O)OCOC(=O)CCCCCCCCC)nc(OC[C@@]56CCCN5C[C@H](F)C6)nc4c3F)c12 [Example 471, (Decanoyloxy)methyl (1R,5S)-3-(7-(8-ethynyl-7-fluoro-3-hydroxynaphthalen-1-yl)-8-fluoro-2-(((2R,7aS)-2-fluorotetrahydro-1H-pyrrolizin-7a(5H)-yl)methoxy)pyrido[4,3-d]pyrimidin-4-yl)-3,8-diazabicyclo[3.2.1]octane-8-carboxylate] | – | – | – | % remaining in human whole blood ([4]; time point 0 min): 100%; % remaining in human whole blood ([4]; time point 10 min): 105%; % remaining in human whole blood ([4]; time point 30 min): 77%; % remaining in human whole blood ([4]; time point 60 min): 51%; % remaining in human whole blood ([4]; time point 120 min): 31%
5 | O[C@@H]1C[C@@H]2CN(c3nc(OCC45CCCN4CCC5)nc4c(F)c(-c5cccc6cccc(Cl)c56)ncc34)C[C@H]1N2 [Example 49, (1R,5R,6R)-3-(7-(8-chloronaphthalen-1-yl)-8-fluoro-2-((tetrahydro-1H-pyrrolizin-7a(5H)-yl)methoxy)pyrido[4,3-d]pyrimidin-4-yl)-3,8-diazabicyclo[3.2.1]octan-6-ol] | 0.4 nM | 5.9 nM | 2.12 µM | –
6 | CN1C[C@H](Oc2cccc(S(=O)(=O)F)c2)C[C@H]1COc1nc(N2C[C@H]3CC[C@@H](C2)N3)c2cnc(-c3cccc4cccc(Cl)c34)c(F)c2n1 [Example 208, 3-(((3R,5S)-5-(((4-((1R,5S)-3,8-diazabicyclo[3.2.1]octan-3-yl)-7-(8-chloronaphthalen-1-yl)-8-fluoropyrido[4,3-d]pyrimidin-2-yl)oxy)methyl)-1-methylpyrrolidin-3-yl)oxy)benzenesulfonyl fluoride tris 2,2,2-trifluoroacetate] | – | 1840 nM | – | IC50 ([3]; AGS, 3 h): > 16.7 µM
7 | Oc1cc(-c2ncc3c(N4C[C@H]5CC[C@@H](C4)N5)nc(OCCCN4C[C@@H]5C[C@H]4CO5)nc3c2F)c2ccccc2c1 [Example 24, 4-(2-(3-((1S,4S)-2-oxa-5-azabicyclo[2.2.1]heptan-5-yl)propoxy)-4-((1R,5S)-3,8-diazabicyclo[3.2.1]octan-3-yl)-8-fluoropyrido[4,3-d]pyrimidin-7-yl)naphthalen-2-ol] | 5 nM | 7.9 nM | 2.89 µM | –
8 | CN1C[C@H](Oc2ccc(S(=O)(=O)F)cc2)C[C@H]1COc1nc(N2C[C@H]3CC[C@@H](C2)N3)c2cnc(-c3cccc4cccc(Cl)c34)c(F)c2n1 [Example 209, 4-(((3R,5S)-5-(((4-((1R,5S)-3,8-diazabicyclo[3.2.1]octan-3-yl)-7-(8-chloronaphthalen-1-yl)-8-fluoropyrido[4,3-d]pyrimidin-2-yl)oxy)methyl)-1-methylpyrrolidin-3-yl)oxy)benzenesulfonyl fluoride tris(2,2,2-trifluoroacetate)] | – | 2750 nM | – | IC50 ([3]; AGS, 3 h): > 16.7 µM
